The values that follow come from patent US9642829B2, “Antifungal compound and uses thereof” (The University of Hong Kong, priority 2012, dated 2017).

Each structure is given as a SMILES string.

The test system of assay [1] is C. albicans biofilms. As to the kind of experiment: Mono species Candida biofilm MIC, XTT assay. Type of assay: cell-based, Candida albicans. The conditions noted are these: for Minimum inhibitory concentration of 48 h Candida biofilms: 48 h C. albicans biofilms; for Biofilm MIC90: 24 h C. albicans biofilms, 24 h drug exposure, XTT. As for the experimental part:
(§1) For instance, we have previously shown the resistance of Candida biofilms against amphotericin and caspofungin. Therefore, next using standard biofilm assays we have established in our laboratory, we examined the effect of SM21 against Candida biofilms. In brief, Candida cells were grown in SDA medium at 37° C. for 18 h. Then a loopful of the yeast was inoculated into the yeast nitrogen base (YNB; Difco) medium supplemented with 50 mM glucose in a rotary shaker at 75 rpm. After overnight broth culture, the yeasts were harvested in the late exponential growth phase and washed twice with 20 ml of phosphate buffer saline (PBS; pH 7.2. 0.1 M) prior to use in the biofilm studies. Candida biofilms were developed according to a previously published protocol. In brief, washed yeast cells were resuspended in YNB supplemented with 100 mM glucose and adjusted to an optical density of 0.38 at 520 nm (1×10^7 cells/ml). The standard cell suspension was used immediately to develop biofilms on commercially available presterilized, polystyrene, 96-well plate (IWAKI, Tokyo, Japan). At first, 100 μl of standardized cell suspension (1×10^7 cells/ml) was pipetted into each well of a microtiter plate and incubated for 1.5 h at 37° C. in a shaker at 75 rpm to permit yeast adherence to the well surface (adherence phase). For controls, a well of each microtiter plate was handled in an identical fashion except that no Candida suspension was added. Following the adhesion phase, the cell suspensions were aspirated, and each well washed with 100 μl of PBS to remove loosely adherent cells. 200 μl of YNB with 100 mM glucose were then pipetted into each of the washed wells and the plates incubated at 37° C. in a shaker at 75 rpm for 24 or 48 h. After biofilm growth phase microscopic examination of the cultures were performed to rule out contamination. Then, the suspending medium was aspirated and biofilms were washed with 100 μl PBS to remove the nonadherent cells. The stock solutions were diluted twofold with RPMI 1640 supplemented with 2% glucose to obtain SM21 concentration from 100 to 0.2 μg/ml drug concentrations. In parallel, other antifungal agents such as caspofungin (100 to 0.1 μg/ml) and amphotericin B (240 μg/ml to 0.225 μg/ml) was also prepared as describe above. A total of 100 μl of drug solution was added to the microtiter plate containing Candida biofilms. Biofilms were then incubated at 37° C. for 24 h with the antifungals and afterwards metabolic activity of fungal cells was determined by the XTT [2,3-bis(2-methoxy-4-nitro-5-sulfophenyl)-2H-tetrazolium-5-carboxanilide sodium salt] assay (17, 28). Candida biofilm MIC90 was defined as the lowest drug concentration with 90% reduction in opacity compared with the drug free control. Each experiment was repeated three times with four replicates.

Assay [2] relates to C. glabrata biofilms. As to the kind of experiment: Mono species Candida biofilm MIC, XTT assay. Type of assay: cell-based. The conditions noted are these: 48 h C. glabrata biofilms. As to the method:
as §1
A general note: Tetrazolium dyes change colour on reduction, which living cells bring about.

Assay [3] has as its system C. krusei biofilms. Briefly: Mono species Candida biofilm MIC, XTT assay. In kind it is cell-based. The conditions noted are these: 48 h C. krusei biofilms. As to the method: as §1
Assay [4] relates to C. albicans. Briefly: Antifungal susceptibility (MIC/MFC), CLSI criteria, 96-well double dilution. In kind it is cell-based, Candida albicans. The conditions noted are these: 0.5 McFarland inoculum (10^6 cells/ml). As for the experimental part: (§2) Antifungal activity of the small molecules was evaluated using USA standards, Clinical and Laboratory Standards Institute (CLSI) criteria. In brief, inocula from 24 h Candida cultures on Sabourauds's dextore agar were standardized to a turbidity equivalent of 0.5 McFarland standards at 520 nm with a spectrophotometer. The suspensions were further diluted in Rosewell Park Memorial Institute (RPMI) 1640 medium (Life technologies, New York, USA) to yield an inoculum concentration of approximately 0.5 1×10^3 to 2.5 1×10^3 cells/ml. Minimum inhibitory concentration (MIC) and minimum fungicidal concentration (MFC) assay was performed in 96-well plates (Iwaki, Tokyo, Japan) and each of the Candida species was exposed to a double dilution of SM21. Amphotericin B was used as a positive control. All the experiments were preformed three occasions with duplicates for all isolates. The plates were incubated at 35° C. for 48 h to evaluate MIC. In the case of Cryotococcus neoformans, reading were taken after 72 h. Aforementioned assay was performed for C. albicans ATCC 90028, C. albicans SC5314 and 10 C. albicans clinical isolates. Moreover, MIC/MFC determination was carried out for other fungal species such as C. glabrata, C. krusei, C. tropicalis, C. parapsilosis, C. neoformans, Aspergillus fumigates and Penicillium marneffei. […] Next using dose-dependent assay we tested that MIC/MFC of SM21 from 10^3 cells/ml to 10^7 cells/ml of C. albicans (Table 2). Each of the foregoing experiment was repeated on three different occasions.

The subject of assay [5] is C. glabrata. As to the kind of experiment: Antifungal susceptibility (MIC/MFC), CLSI criteria. Type of assay: cell-based, Candida glabrata. The conditions noted are these: C. glabrata ATCC; 0.5 McFarland inoculum (10^6 cells/ml). As for the experimental part:
(§3) Antifungal activity of the small molecules was evaluated using USA standards, Clinical and Laboratory Standards Institute (CLSI) criteria. In brief, inocula from 24 h Candida cultures on Sabourauds's dextore agar were standardized to a turbidity equivalent of 0.5 McFarland standards at 520 nm with a spectrophotometer. The suspensions were further diluted in Rosewell Park Memorial Institute (RPMI) 1640 medium (Life technologies, New York, USA) to yield an inoculum concentration of approximately 0.5 1×10^3 to 2.5 1×10^3 cells/ml. Minimum inhibitory concentration (MIC) and minimum fungicidal concentration (MFC) assay was performed in 96-well plates (Iwaki, Tokyo, Japan) and each of the Candida species was exposed to a double dilution of SM21. Amphotericin B was used as a positive control. All the experiments were preformed three occasions with duplicates for all isolates. The plates were incubated at 35° C. for 48 h to evaluate MIC. In the case of Cryotococcus neoformans, reading were taken after 72 h. Aforementioned assay was performed for C. albicans ATCC 90028, C. albicans SC5314 and 10 C. albicans clinical isolates. Moreover, MIC/MFC determination was carried out for other fungal species such as C. glabrata, C. krusei, C. tropicalis, C. parapsilosis, C. neoformans, Aspergillus fumigates and Penicillium marneffei. […]

The subject of assay [6] is C. krusei. Briefly: Antifungal susceptibility (MIC/MFC), CLSI criteria. In kind it is cell-based, Candida krusei. The conditions noted are these: C. krusei ATCC; 0.5 McFarland inoculum (10^6 cells/ml). As for the experimental part: as §3
For assay [7], the system named is C. tropicalis. Briefly: Antifungal susceptibility (MIC/MFC), CLSI criteria. In kind it is cell-based, Candida tropicalis. The conditions noted are these: C. tropicalis ATCC; 0.5 McFarland inoculum (10^6 cells/ml). As for the experimental part:
as §3

For assay [8], the system named is C. parapsilosis. Briefly: Antifungal susceptibility (MIC/MFC), CLSI criteria. Type of assay: cell-based, Candida parapsilosis. The conditions noted are these: C. parapsilosis ATCC; 0.5 McFarland inoculum (10^6 cells/ml). As to the method:
as §3

Assay [9] deals with C. neoformans. As to the kind of experiment: Antifungal susceptibility (MIC/MFC), CLSI criteria, reading after 72 h. The conditions noted are these: 0.5 McFarland inoculum (10^6 cells/ml). Type of assay: cell-based, Cryptococcus neoformans. As for the experimental part: as §3
Assay [10] concerns Aspergillus fumigatus. As to the kind of experiment: Antifungal susceptibility (MIC/MFC), CLSI criteria. The conditions noted are these: 0.5 McFarland inoculum (10^6 cells/ml). Type of assay: cell-based. As to the method:
as §2

Assay [11] deals with Penicillium marneffei. As to the kind of experiment: Antifungal susceptibility (MIC/MFC), CLSI criteria. The conditions noted are these: 0.5 McFarland inoculum (10^6 cells/ml). Type of assay: cell-based. As for the experimental part: as §2
The subject of assay [12] is C. albicans. As to the kind of experiment: Dose-dependent assay of MIC/MFC at different cell densities. Type of assay: cell-based, Candida albicans. On the set-up: unit not given here. As for the experimental part:
as §2

The subject of assay [13] is C. albicans SC5314 and C. albicans ATCC 90028. As to the kind of experiment: Antifungal activity compared with caspofungin and amphotericin B (FIG. 2, CLSI M44-A disc diffusion). Type of assay: cell-based, Candida albicans. The text has this: (§4) Oral Biosciences laboratory has one of the largest collections of fungal isolates, particular that of Candida species in the world. In our previous studies, we have found multidrug resistant clinical isolates of Candida species against existing antifungals. In particular, some of these strains are resistant to best antifungal agents to date such as caspofungin, amphotericin B and fluconazole. Therefore, we performed antifungal susceptibility testing for SM21 against these drug resistant Candida isolates suing CLSI M27A brothmicrodultion assay and CLSI M44-A disc diffusion assay.

The subject of assay [14] is resistant isolate T-1549. The assay is described as above. In kind it is cell-based, C. guilliermondii. The conditions noted are these: resistant isolate T-1549 (FIG. 2C).
Excerpt: as §4

[15] abbreviates: C. albicans ATCC 90028, CLSI quality control strain (FIG. 2B).

As for `Nc1nc(=O)[nH]cc1F` [5-fluorocytosine], the “Minimum inhibitory concentration of 48 h Candida biofilms” value (“Minimum inhibitory concentration” for short) in assay [1] was determined as 420 µg/mL; in assay [2], 420 µg/mL; in [3] it was 250 µg/mL.

For the compound `C[C@@H]1[C@H](O)[C@@H](C)/C=C/C=C/C=C/C=C/C=C/C=C/C=C/[C@H](O[C@@H]2O[C@H](C)[C@@H](O)[C@H](N)[C@@H]2O)C[C@@H]2O[C@](O)(C[C@@H](O)C[C@@H](O)[C@H](O)CC[C@@H](O)C[C@@H](O)CC(=O)O[C@H]1C)C[C@H](O)[C@H]2C(=O)O` [Amphotericin B, reference compound], the “Susceptibility (MIC90)” value in [4] (C. albicans ATCC 90028) was 0.2 µg/mL; in [4] (C. albicans CL1) it was 0.2 µg/mL; in assay [4] (C. albicans CL2) it was 0.4 µg/mL; in [4] (C. albicans CL3) it was 0.4 µg/mL; in [4] (C. albicans CL4) it was 0.2 µg/mL; in assay [4] (C. albicans CL5) it was 0.2 µg/mL. Also, the “Susceptibility (MIC90)” value in [4] (C. albicans CL6) is 0.2 µg/mL; in assay [4] (C. albicans CL7), 0.2 µg/mL; in [4] (C. albicans CL8) it was 0.4 µg/mL; in assay [4] (C. albicans CL9), 0.4 µg/mL; in [4] (C. albicans CL10) it was 0.2 µg/mL; in assay [4] (C. albicans SC5314), 0.2 µg/mL. The “Susceptibility (MIC90)” value came to 0.4 µg/mL in assay [5]; 0.4 µg/mL in [6]; 0.8 µg/mL in assay [7]; 0.8 µg/mL in [8]; 0.4 µg/mL in assay [9]; 1.56 µg/mL in assay [10]. In assay [11], the “Susceptibility (MIC90)” value was found to be 0.05 µg/mL. The MIC/MFC in assay [12] (C. albicans 10^4 cells/ml) is 0.2; in assay [12] (C. albicans 10^5 cells/ml), 0.2; in assay [12] (C. albicans 10^6 cells/ml), 0.2; in [12] (C. albicans 10^7 cells/ml), 0.8. Besides, the “Susceptibility of the strain to the agent” value in assay [13] (setting [15]) and in assay [13] (C. albicans SC5314 (FIG. 2A)) was “susceptible” throughout. Moreover, the “Effectiveness against resistant isolate” value in [14] is “only SM21 was effective”. For the same compound, in assay [1], the “Biofilm MIC90” value turned out to be 32 µg/mL. Further, the “Minimum inhibitory concentration” value in [1] came out at 32 µg/mL; in assay [2], 16 µg/mL; in assay [3] it was 32 µg/mL.

As for `CC[C@H](C)C[C@H](C)CCCCCCCCC(=O)N[C@H]1C[C@@H](O)[C@@H](NCCN)NC(=O)[C@@H]2[C@@H](O)CCN2C(=O)[C@H]([C@H](O)CCN)NC(=O)[C@H]([C@H](O)[C@@H](O)c2ccc(O)cc2)NC(=O)[C@@H]2C[C@@H](O)CN2C(=O)[C@H]([C@@H](C)O)NC1=O` [Caspofungin], the “Susceptibility of the strain to the agent” value in [13] (setting [15]) and in assay [13] (C. albicans SC5314 (FIG. 2A)) was “susceptible” throughout. In addition, the “Effectiveness against resistant isolate” value in assay [14] is reported as “only SM21 was effective”. In addition, the “Biofilm MIC90” value in assay [1] amounted to 50 µg/mL. Further, the “Minimum inhibitory concentration” value in [1], in assay [2] and in [3] was 100 µg/mL each time.

As for `CC(=O)N1CCN(c2ccc(OCC3COC(Cn4ccnc4)(c4ccc(Cl)cc4Cl)O3)cc2)CC1` (stereo not shown) [Ketoconazole], the “Minimum inhibitory concentration” value in assay [1], in [2] and in [3] was 64 µg/mL in each case.
